Assay results as given in patent US20210000792A1, “METHODS FOR REDUCING OR PREVENTING CARDIOVASCULAR EVENTS IN PATIENTS WITH TYPE II DIABETES MELLITUS” (Janssen Pharmaceutica NV, priority 2017, published 2021).

Columns and labels:
[1] = tested on: men and women with type 2 diabetes and history or high risk of cardiovascular disease; test: CANVAS clinical trial, canagliflozin 300 mg or 100 mg versus placebo; assay type: in vivo, human
Excerpt: (§1) Two clinical trials were completed to assess the cardiovascular safety and efficacy of canagliflozin, and how any potential benefits might balance against known risks. The complete protocols for said trials, name CANVAS and CANVAS-R, which protocols are each incorporated in their entirety herein, may be found on www.clinicaltrials.gov (more specifically at the following urls: https://clinicaltrials.gov/ct2/show/NCT01032629?term=canvas&rank=1 and https://clinicaltrials.gov/ct2/show/NCT01989754?term=canvas-r&rank=1, respectively).
(§2) All potential participants completed a 2-week, single-blind, placebo run-in period. Randomization was done centrally through an interactive web response system using a computer-generated randomization schedule prepared by the study sponsor using randomly permuted blocks. Participants in CANVAS were randomly assigned in a 1:1:1 ratio to canagliflozin 300 mg, canagliflozin 100 mg, or matching placebo, and participants in CANVAS-R were randomly assigned in a 1:1 ratio to canagliflozin or matching placebo administered at an initial dose of 100 mg daily with optional up-titration to 300 mg from week 13. Participants and all study staff were masked to individual treatment allocations until the completion of the study. Use of other background therapy for glycemic management and other risk factor control was according to best practice instituted in line with local guidelines including Renin Angiotensin System (RAS) blockade.
(§3) Post-randomization, face-to-face follow-up was scheduled for 3 visits in the first year and at 6-month intervals thereafter, with alternating telephone follow-up between face-to-face assessments. Every follow-up included inquiry about primary and secondary outcome events and serious adverse events. Urinary albumin:creatinine ratio was measured every 26 weeks in CANVAS-R, and at Week 12 and then annually in CANVAS. Serum creatinine measurement with estimation of glomerular filtration rate (eGFR) was performed at least every 26 weeks in both trials. Individuals that prematurely discontinued study treatment continued scheduled follow-up wherever possible, with extensive efforts made to obtain full outcome data for all during the final follow-up window that spanned November 2016 to February 2017.
(§4) The primary outcome was a composite of cardiovascular mortality, nonfatal myocardial infarction, or nonfatal stroke. Secondary outcomes were total mortality; cardiovascular mortality; progression of albuminuria; and the composite of cardiovascular mortality and hospitalization for heart failure. Progression of albuminuria grade was defined as a more then 30% increase in albuminuria and a switch from either normoalbuminuria to microalbuminuria or macroalbuminuria, or from microalbuminuria to macroalbuminuria. In the event that sequential testing was not significant for all then remaining outcomes were scheduled for assessment as exploratory variables in the integrated dataset.
(§5) Evaluation of total hospitalizations was also prespecified.
(§6) All major cardiovascular events, renal outcomes and deaths, plus selected safety outcomes were ratified by Endpoint Adjudication Committees. Intermediate markers of cardiovascular risk and requirement for antihyperglycemic agents were assessed to help understand the observed effects on cardiovascular and renal outcomes. Analyses of safety were of adverse events coded using the latest version of the MedDRA Dictionary. For bone fracture, the primary prespecified analysis was for low-trauma fracture events but secondary analysis of all fractures was also done. Amputations were assessed overall but numbers of cases above and below the ankle were also reported.
(§7) The primary hypothesis test was of noninferiority for the hazard ratio (HR) for the primary outcome at the margin of 1.3 for all canagliflozin versus placebo using the full integrated dataset and the intent to treat approach. […]

[2] = tested on: men and women with type 2 diabetes and history or high risk of cardiovascular disease; test: CANVAS-R clinical trial, canagliflozin 100 mg with optional up-titration to 300 mg versus placebo; assay type: in vivo, human
Excerpt: as §1, §2, §3, §4, §5, §6, §7

[3] = vs placebo, listed as canagliflozin

Cc1ccc([C@@H]2O[C@H](CO)[C@@H](O)[C@H](O)[C@H]2O)cc1Cc1ccc(-c2ccc(F)cc2)s1 [Canagliflozin, canagliflozin]
Cardiovascular mortality, nonfatal myocardial infarction, or nonfatal stroke, n/N ([1]; canagliflozin group): 425/2888
Hospitalization for heart failure, n/N ([1]; canagliflozin group): 85/2888
Nonfatal myocardial infarction, n/N ([1]; canagliflozin group): 152/2888
Nonfatal stroke, n/N ([1]; canagliflozin group): 106/2888
Progression of albuminuria, n/N ([1]; canagliflozin group): 895/2655
Regression of albuminuria, n/N ([1]; canagliflozin group): 434/786
Total mortality, n/N ([1]; canagliflozin group): 301/2888
40% reduction in eGFR, RRT, or renal death, hazard ratio (95% confidence interval) ([1]; vs placebo): 0.56 (0.41-0.75)
40% reduction in eGFR, RRT, renal death or macroalbuminuria, hazard ratio (95% confidence interval) ([1]; vs placebo): 0.64 (0.54-0.76)
40% reduction in eGFR, RRT, renal or CV death, hazard ratio (95% confidence interval) ([1]; vs placebo): 0.74 (0.62-0.89)
Cardiovascular mortality or hospitalization for heart failure, hazard ratio (95% confidence interval) ([1]; vs placebo): 0.82 (0.67-0.99)
Cardiovascular mortality, hazard ratio (95% confidence interval) ([1]; vs placebo): 0.88 (0.70-1.10)
Cardiovascular mortality, nonfatal myocardial infarction, or nonfatal stroke, hazard ratio (95% confidence interval) ([1]; vs placebo): 0.88 (0.75-1.03)
Hospitalization for heart failure, hazard ratio (95% confidence interval) ([1]; vs placebo): 0.77 (0.55-1.08)
Nonfatal myocardial infarction, hazard ratio (95% confidence interval) ([1]; vs placebo): 0.85 (0.65-1.11)
Nonfatal stroke, hazard ratio (95% confidence interval) ([1]; vs placebo): 0.97 (0.70-1.35)
Progression of albuminuria, hazard ratio (95% confidence interval) ([1]; vs placebo): 0.80 (0.72-0.90)
Regression of albuminuria, hazard ratio (95% confidence interval) ([1]; vs placebo): 1.56 (1.30-1.87)
Total mortality, hazard ratio (95% confidence interval) ([1]; vs placebo): 0.84 (0.70-1.01)
Progression of albuminuria, hazard ratio (95% confidence interval) [1, 3]: 0.80
Albumin:creatinine ratio progression, events per 1000 patient-years [2]: 99.80 per 1000 patient-years
Cardiovascular death or hospitalization for heart failure, events per 1000 patient-years [2]: 15.85 per 1000 patient-years
Cardiovascular death, events per 1000 patient-years [2]: 10.06 per 1000 patient-years
40% reduction in eGFR, RRT, or renal death, n/N ([2]; canagliflozin group): 33/2907
40% reduction in eGFR, RRT, renal death or macroalbuminuria, n/N ([2]; canagliflozin group): 112/2907
40% reduction in eGFR, RRT, renal or CV death, n/N ([2]; canagliflozin group): 93/2907
Cardiovascular mortality or hospitalization for heart failure, n/N ([2]; canagliflozin group): 95/2907
Cardiovascular mortality, n/N ([2]; canagliflozin group): 61/2907
Cardiovascular mortality, nonfatal myocardial infarction, or nonfatal stroke, n/N ([2]; canagliflozin group): 160/2907
Hospitalization for heart failure, n/N ([2]; canagliflozin group): 38/2907
Nonfatal myocardial infarction, n/N ([2]; canagliflozin group): 63/2907
Nonfatal stroke, n/N ([2]; canagliflozin group): 52/2907
Progression of albuminuria, n/N ([2]; canagliflozin group): 446/2541
Regression of albuminuria, n/N ([2]; canagliflozin group): 451/893
Total mortality, n/N ([2]; canagliflozin group): 99/2907
40% reduction in eGFR, RRT, or renal death, hazard ratio (95% confidence interval) ([2]; vs placebo): 0.71 (0.45-1.11)
40% reduction in eGFR, RRT, renal death or macroalbuminuria, hazard ratio (95% confidence interval) ([2]; vs placebo): 0.48 (0.38-0.60)
40% reduction in eGFR, RRT, renal or CV death, hazard ratio (95% confidence interval) ([2]; vs placebo): 0.82 (0.62-1.08)
Cardiovascular mortality or hospitalization for heart failure, hazard ratio (95% confidence interval) ([2]; vs placebo): 0.72 (0.55-0.94)
Cardiovascular mortality, hazard ratio (95% confidence interval) ([2]; vs placebo): 0.86 (0.61-1.22)
Cardiovascular mortality, nonfatal myocardial infarction, or nonfatal stroke, hazard ratio (95% confidence interval) ([2]; vs placebo): 0.82 (0.66-1.01)
Hospitalization for heart failure, hazard ratio (95% confidence interval) ([2]; vs placebo): 0.56 (0.38-0.83)
Nonfatal myocardial infarction, hazard ratio (95% confidence interval) ([2]; vs placebo): 0.85 (0.61-1.19)
Nonfatal stroke, hazard ratio (95% confidence interval) ([2]; vs placebo): 0.82 (0.57-1.18)
Progression of albuminuria, hazard ratio (95% confidence interval) ([2]; vs placebo): 0.64 (0.57-0.73)
Regression of albuminuria, hazard ratio (95% confidence interval) ([2]; vs placebo): 1.80 (1.55-2.09)
Total mortality, hazard ratio (95% confidence interval) ([2]; vs placebo): 0.92 (0.70-1.21)
Progression of albuminuria, hazard ratio (95% confidence interval) [2, 3]: 0.64
